From patent US12459951B2, “Compounds that interact with RAS superfamily proteins for treatment of cancers, inflammatory diseases, rasopathies, and fibrotic disease” (SHY Therapeutics, LLC, priority 2022, dated 2025) come the findings set out here.

In one experiment the test system is PUMA expression. Nature of the experiment: Cell-based Puma expression assay (western blot). Also noted: species or system human. How it is done:
Biological Example 4: Puma Expression and Caspases Activation Assay
Protocols for Cell-Based Puma Expression and Caspase Activation Assays
Cell lines: All human tumor-derived cancer cell lines were purchased from American Type Culture Collection. Human tumor-derived cancer cell lines Panc-1 (expressing KRas G12D mutant), MiaPaca-2 (expressing KRas G12C mutant), A549 (expressing KRas G12S mutant), and A375 (expressing wild type KRas) were grown in complete DMEM-High Glucose medium and NCI-H1975 (expressing wild type KRas), MM.1R (expressing wild type KRas) and IM.9 (expressing wild type KRas) were grown in RPMI1640 medium. Human tumor-derived cancer cell line BT-549 (expressing wild type KRas) was grown in RPMI1640 medium with 11.8U insulin. All mediums were supplemented with penicillin (100 U/mL), streptomycin (100 μg/mL), and 10% heat-inactivated FBS at 37° C. in a humidified incubator with 5% CO2.
Method: Cells were plated at 300,000 to 800,000 cells/well density in a 6-well plate in the presence of 10% FBS. The next day small molecules to be tested were added to the cells in the final concentration of 3 μM in the presence of 0.3% DMSO for 48 hours incubation at 37° C. For IC50 value determination, serial dilutions of compounds were added to cells under the same conditions. Following 48 hours of incubation cells were lysed with lysis buffer containing 1% Triton X-100, EDTA, and Halt™ Protease & Phosphatase Inhibitor Cocktail (Thermo Scientific). Protein concentration was assessed by BCA protein assay (Thermo Scientific). Increase expression of PUMA and active/cleaved forms of caspase 3, caspase 6 and caspase 9 were detected by western blot.
Western blot protocol: Equal amounts of protein (15-50 μg) were separated by SDS-PAGE and transferred to nitrocellulose membranes (Invitrogen by Thermo Fisher Scientific). The membrane was stained with Ponceau S Stain (Boston BioProducts) to verify uniform protein loading. Membranes were blocked with 10% milk and expression levels of PUMA was assessed by incubating overnight at 4° C. with the antibody PUMA (D30C10) from Cell Signaling Technology (#12450) and active/cleaved forms of caspase 3, caspase 6 and caspase 9 by incubating overnight at 4° C. with the following antibodies: cleaved caspase-3 (Asp175) (5A1E), cleaved caspase-6 (Asp162) and cleaved caspase-9 (Asp330) (D2D4) (all antibodies from Cell Signaling Technology). Then the membranes were incubated with HRP-conjugated secondary antibody (Jackson Immunoresearch, West Grove, PA). Bands were incubated in Amersham ECL Prime Western Blotting Detection Reagent (GE Healthcare) and visualized using the ChemiDoc MP imaging system (Bio-Rad).
A general note: Immunoblotting shows a protein as a band on a membrane.

The test system of a further experiment is JNK phosphorylation. The experiment can be described thus: JNK Activation Assay (western blot), Panc-1. The format is cell-based, human. The note with it: at 10 μM, Panc-1 pancreatic cancer cell line; starred symbols = activation. How it is done: Protocol for JNK Activation Assay
This assay is referred to as the “JNK Activation Assay” throughout this application.
Cell lines: Human tumor-derived pancreatic cancer cell line Panc-1 (expressing KRas […] mutant) was purchased from American Type Culture Collection and grown in complete DMEM-High Glucose medium, supplemented with penicillin (100 U/mL), streptomycin (100 μg/mL), and 10% heat-inactivated FBS at 37° C. in a humidified incubator with 5% CO2.
Method 1: Cells were plated at 350000 cells/well density in a 12-well plate, allowed 3 hours to adhere to the plate, then starved in the appropriate medium in the presence of 0.5% FBS overnight. The small molecules to be tested were added to the cells in the final concentration of 10 μM in the presence of 0.3% DMSO for 6 hours incubation at 37° C. For IC50 value determination, serial dilutions of compounds were added to cells under the same conditions. Next, cells were stimulated with 1.5 ng/ml EGF for 15 minutes then cells were lysed with lysis buffer containing 1% Triton X-100, EDTA, and Halt™ Protease & Phosphatase Inhibitor Cocktail (Thermo Scientific). Protein concentration was assessed by BCA protein assay (Thermo Scientific). Phosphorylation level of JNK was determined by western blot.
Method 2: Cells were plated at 350000 cells/well density in a 12-well plate in the presence of 10% FBS. The next day small molecules to be tested were added to the cells in the final concentration of 10 μM in the presence of 0.3% DMSO for 6 hours incubation at 37° C. For IC50 value determination, serial dilutions of compounds were added to cells under the same conditions. Next, cells were lysed with lysis buffer containing 1% Triton X-100, EDTA, and Halt™ Protease & Phosphatase Inhibitor Cocktail (Thermo Scientific). Protein concentration was assessed by BCA protein assay (Thermo Scientific). Phosphorylation level of JNK was determined by western blot.
Western blot protocol: Equal amounts of protein (15-50 μg) were separated by SDS-PAGE and transferred to nitrocellulose membranes (Invitrogen by Thermo Fisher Scientific). The membrane was stained with Ponceau S Stain (Boston BioProducts) to verify uniform protein loading. Membranes were blocked with 10% milk and phosphorylation levels of JNK were assessed by incubating overnight at 4° C. with the antibody Phospho-SAPK/JNK (Thr183/Tyr185), from Cell Signaling Technology. Then the membranes were incubated with HRP-conjugated secondary antibody (Jackson Immunoresearch, West Grove, PA). Bands were incubated in Amersham ECL Prime Western Blotting Detection Reagent (GE Healthcare) and visualized using the ChemiDoc MP imaging system (Bio-Rad).

For the compound `COc1ccnc(Nc2nc(-c3nccn3C)nn3cc(-c4ccn(C)n4)c(C)c23)c1` [Compound 102, N-(4-Methoxypyridin-2-yl)-5-methyl-2-(1-methyl-1H-imidazol-2-yl)-6-(1-methyl-1H-pyrazol-3-yl)pyrrolo[2,1-f][1,2,4]triazin-4-amine], the “Increased PUMA expression” value in the experiment with PUMA expression (A549, after 48 hours) is “yes”; in the experiment with PUMA expression (MiaPaca2, after 48 hours), “yes”.

`Cc1c(-c2ccn(C(C)C)n2)cn2nc(-c3ccccn3)nc(O)c12` [Compound 8, 6-(1-Isopropyl-1H-pyrazol-3-yl)-5-methyl-2-(pyridin-2-yl)pyrrolo[2,1-f][1,2,4]triazin-4-ol]: the “% inh of JNK in Panc-1” value with JNK phosphorylation is on record as “E* (E* = 1-30% activation)”.

Regarding `Cc1c(-c2ccn(C)n2)cn2nc(-c3nccn3C)nc(Nc3cc4n(n3)CCO4)c12` [Compound 124, N-(5-Methyl-2-(1-methyl-1H-imidazol-2-yl)-6-(1-methyl-1H-pyrazol-3-yl)pyrrolo[2,1-f][1,2,4]triazin-4-yl)-2,3-dihydropyrazolo[5,1-b]oxazol-6-amine], the “Increased PUMA expression” value in the experiment with PUMA expression (HCC1806, after 48 hours) is given as “yes”; with PUMA expression (MiaPaca2, after 48 hours), “yes”; in the experiment with PUMA expression (NCI-H358, after 48 hours) it was “yes”.

`COc1cc(Nc2nc(-c3nccn3C)nn3cc(-c4ccn(C(C)C)n4)c(C)c23)ncn1` [Compound 6, 6-(1-Isopropyl-1H-pyrazol-3-yl)-N-(6-methoxypyrimidin-4-yl)-5-methyl-2-(1-methyl-1H-imidazol-2-yl)pyrrolo[2,1-f][1,2,4]triazin-4-amine]: the “% inh of JNK in Panc-1” value in the experiment on JNK phosphorylation is recorded as “H* (H* ≥ 100% activation)”. The “Increased PUMA expression” value was “yes” in the experiment on PUMA expression (A549, after 48 hours); “yes” with PUMA expression (BT-549, after 48 hours); “yes” in the experiment with PUMA expression (MiaPaca2, after 48 hours).

For `CO[C@H]1CC[C@@H](Nc2nc(-c3ccccn3)nn3cc(-c4ccn(C(C)C)n4)c(C)c23)C1` (racemic) [Compound 9, rac 6-(1-Isopropyl-1H-pyrazol-3-yl)-N-((1R,3S)-3-methoxycyclopentyl)-5-methyl-2-(pyridin-2-yl)pyrrolo[2,1-f][1,2,4]triazin-4-amine], in the experiment on JNK phosphorylation, the “% inh of JNK in Panc-1” value is “F* (F* = 31-74% activation)”.

On to `Cc1c(-c2ccn(C(C)C)n2)cn2nc(-c3nccn3C)nc(Nc3nccn3C)c12` [Compound 93, 6-(1-Isopropyl-1H-pyrazol-3-yl)-5-methyl-N,2-bis(1-methyl-1H-imidazol-2-yl)pyrrolo[2,1-f][1,2,4]triazin-4-amine], for which the “% inh of JNK in Panc-1” value in the experiment with JNK phosphorylation was “H* (H* ≥ 100% activation)”.
